# Like-named read-outs stand apart in the source and are kept apart here.
# What was measured:
# MARK4 [1] = biological target: T1, MARK4 (Homo sapiens, UniProt Q96L34); experiment: Fluorescence quenching binding study (modified Stern-Volmer); settings: excitation 280 nm, 25 °C
# T1 construct: inferred from Ni-NTA purification; made in house
# T1 sequence (Q96L34 59-368): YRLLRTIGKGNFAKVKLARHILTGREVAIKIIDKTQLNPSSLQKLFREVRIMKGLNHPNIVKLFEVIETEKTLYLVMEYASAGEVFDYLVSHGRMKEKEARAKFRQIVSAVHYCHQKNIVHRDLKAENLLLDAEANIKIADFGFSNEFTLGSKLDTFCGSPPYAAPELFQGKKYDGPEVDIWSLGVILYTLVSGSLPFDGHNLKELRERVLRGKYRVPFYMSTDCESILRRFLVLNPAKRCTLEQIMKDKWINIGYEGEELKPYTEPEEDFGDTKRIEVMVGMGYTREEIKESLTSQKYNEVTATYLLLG
# MARK4 [2] = biological target: T1, MARK4; experiment: ATPase inhibition assay ([γ-32P]ATP hydrolysis, TLC); assay type: biochemical
# SH-SY5Y cells = experiment: MTT cell proliferation assay, SH-SY5Y; assay type: cell-based, human; settings: 48 h, at a dose even higher than 200 μM
# Procedure: (§1) Briefly, breast cancer cells (MCF-7), human cervical cancer cells (HeLa), human neuroblastoma (SH-SY5Y) cells and human embryonic kidney cells (HEK293T) were seeded in a 96 well plates at a concentration of 10 × 10^3 viable cells per well. […] After 48 h of treatment, both medium and inhibitor were removed from the cells, washed twice with phosphate buffer saline (PBS) and then 20 µl MTT (from 5 mg/ml stock) and 100 µl DMEM was loaded to each well followed by 4–5 hours incubation in a CO2 incubator at 37 °C. Finally, the residual MTT medium was removed carefully and dissolves the crystals of formazan by adding 100 µl DMSO in each well. The micro-titer plates were then agitated for 15–20 minutes on an orbital plate shaker and then absorbance at 570 nm was determined on a titerplate reader (BioRad). The absorbance value so obtained was converted into percentage viability in comparison to the control cells (untreated cells/cells treated with media only). For cell proliferation studies doxorubicin has been taken as positive control.
# HEK293 cells = experiment: MTT cell proliferation assay, HEK293; assay type: cell-based, human; settings: 48 h, at a dose even higher than 200 μM
# Procedure: as §1
# HeLa cells = experiment: MTT cell proliferation assay, HeLa; assay type: cell-based; settings: Homo sapiens, 48 h, read-out: IC50 (cell viability)
# Procedure: as §1
# MCF-7 cells [3] = experiment: Annexin-V apoptosis assay by flow cytometry; assay type: cell-based, human; settings: MCF-7, IC50 concentration (rutin 80 μM, vanillin 120 μM), 48 h
# From the text: Apoptosis plays a central role in the progress and pathophysiology of a wide variety of diseases. However, due to impairment of apoptotic signal transmission most of the cancerous cells evade apoptosis. […] Annexin- V staining was used to study the apoptosis. […] Cells were washed twice with phosphate-buffered saline (PBS) and stained with FITC labeled Annexin- V. Annexin- Vpositive cells were examined by flow cytometry. […] Annexin-V staining was used to determine the cell apoptosis, [73]. […] After treatment, nearly 2 × 10^6 cells were trypsinized and washed two times with 5 ml of PBS by centrifuging at 1800 rpm for 4 min. FITC-Annexin-V staining was done by using FITC-Annexin-V kit according to the manufacturer’s instructions (BD-Biosciences, USA). 10,000 events for each sample were analyzed by flow cytometry BD FACS Canto and data analysis was performed with help of flowJo software.
# MCF-7 cells [4] = experiment: Intracellular ROS by DCFDA staining; assay type: cell-based, human; settings: MCF-7, 20–120 μM, 12 h
# Procedure: (§2) Followed by incubation, to measure intracellular ROS, 2-Dichlorofluorescein diacetate (DCFDA) staining was performed. […] Further, cytoplasmic superoxide level was measured by dihydroethidium staining (Fig. 7C). […] In fluorescence imaging, substantial decreases in the extent of DHE fluorescence as compared to control (untreated cells) have been observed (Fig. 7C ). […] Total Reactive oxygen species determination (ROS) content inside the cells was determined using the DCFDA reagent. This assay measures various ROS such as H2O2 and hydroxyl radicals. […] After that cells were washed twice with PBS, pH7.4, trypsinized and collected by centrifugation. Finally cells were resuspended in 300 μl of PBS and fluorescence was measured at Jasco spectroflourimeter (FP-6200) using a 5 mm quartz cuvette. The excitation and emission filters were set at 485/500–550 nm respectively. Similarly with some modifications, cytosolic superoxide levels were determined using dihydroxyethidium staining. Briefly, cells were grown on coverslips to 70–80% confluency and replaced the complete media with reduced serum media for overnight. […] Following DHE staining, DAPI is used to satin nuclei of the cells as described earlier. Fluorescence images were taken on Nikon-EclipseTS100 microscope.
# [5] = system: phosphorylation of tau in SH-SY5Y cells; experiment: Tau-phosphorylation assay by flow cytometry (anti-tau pSer262); assay type: cell-based, human; settings: 80–120 μM, 24 hrs
# MCF-7 cells [6] = experiment: MTT cell proliferation assay, MCF-7; assay type: cell-based; settings: Homo sapiens, MCF7; MCF-7, MTT, 48 h; read-out: IC50 (cell viability)
# Procedure: as §1
# MARK4 [7] = biological target: T1, MARK4; experiment: Isothermal titration calorimetry; assay type: binding; settings: ITC, two-site model; for K a1 (association constant): site 1, 25 °C; for K a2 (association constant): site 2, 25 °C
# MCF-7 cells [8] = experiment: Cytoplasmic superoxide by DHE staining; assay type: cell-based, human; settings: MCF-7, rutin 80 μM, vanillin 120 μM
# Procedure: as §2
# [9] = site 1, read-out: K D1 (dissociation constant)
# [10] = site 2, read-out: K D2 (dissociation constant)
Compound,Binding affinity (K a) (MARK4 [1]) [M⁻¹],IC50 (MCF-7 cells [6]) [µM],inhibition at 40 µM (MARK4 [2]) [%],Effect on cell viability (SH-SY5Y cells),Effect on cell viability (HEK293 cells),IC50 (HeLa cells) [µM],Increase in apoptosis as compared to the control cells (MCF-7 cells [3]) [%],DCF fluorescence (intracellular ROS) (MCF-7 cells [4]),Phosphorylation of tau [5],K a1 (association constant) (MARK4 [7]),Kd (MARK4 [7]; [9]) [µM],K a2 (association constant) (MARK4 [7]),Kd (MARK4 [7]; [10]) [µM],Cytoplasmic superoxide levels (DHE fluorescence) (MCF-7 cells [8]),further results
COc1cc(/C=C/C(=O)O)ccc1O [Ferulic acid],13000,–,–,–,–,–,–,–,–,–,–,–,–,–,–
O=C(O)c1cc(O)c(O)c(O)c1 [Gallic acid],7.6,–,–,–,–,–,–,–,–,–,–,–,–,–,–
COc1ccc([C@@H]2CC(=O)c3c(O)cc(O[C@@H]4O[C@H](CO[C@@H]5O[C@@H](C)[C@H](O)[C@@H](O)[C@H]5O)[C@@H](O)[C@H](O)[C@H]4O)cc3O2)cc1O [Hesperidin],112,–,–,–,–,–,–,–,–,–,–,–,–,–,–
C[C@@H]1O[C@@H](OC[C@H]2O[C@@H](Oc3c(-c4ccc(O)c(O)c4)oc4cc(O)cc(O)c4c3=O)[C@H](O)[C@@H](O)[C@@H]2O)[C@H](O)[C@H](O)[C@H]1O [Rutin],287000,80,~50,did not inhibit the viability,did not inhibit the viability,> 200,12,dose-dependent decrease in DCF fluorescence,inhibit the phosphorylation of tau,K a1 = 2.04 × 10^5 ± 0.15 × 10^5 M^−1,4.9,K a2 = 1.72 × 10^6 ± 0.31 × 10^6 M^−1,0.581,decreases cytoplasmic superoxide levels,"ATPase enzyme activity in initial screening (MARK4 [2]; initial screening, compound 30 µM (Fig. S5)): significant decrease in the enzyme activity; ΔH 1 (enthalpy change) (MARK4 [7]; site 1): ΔH 1 = −4.61 × 10^6 cal/mol; ΔS 1 (MARK4 [7]; site 1): ΔS 1 = −1.52 × 10^4 cal/mol/deg; ΔH 2 (enthalpy change) (MARK4 [7]; site 2): ΔH 2 = −1.0 × 10^4 cal/mol; ΔS 2 (MARK4 [7]; site 2): ΔS 2 = −4.74 cal/mol/deg"

# Further lines, with some results ahead:
Binding affinity (K a) (MARK4 [1]) [M⁻¹],IC50 (MCF-7 cells [6]) [µM],Compound,inhibition at 40 µM (MARK4 [2]) [%],Effect on cell viability (SH-SY5Y cells),Effect on cell viability (HEK293 cells),IC50 (HeLa cells) [µM],Increase in apoptosis as compared to the control cells (MCF-7 cells [3]) [%],DCF fluorescence (intracellular ROS) (MCF-7 cells [4]),Phosphorylation of tau [5],K a1 (association constant) (MARK4 [7]),Kd (MARK4 [7]; [9]) [µM],K a2 (association constant) (MARK4 [7]),Kd (MARK4 [7]; [10]) [µM],Cytoplasmic superoxide levels (DHE fluorescence) (MCF-7 cells [8]),further results
16500,120,COc1cc(C=O)ccc1O [Vanillin],~50,did not inhibit the viability,did not inhibit the viability,> 200,9,dose-dependent decrease in DCF fluorescence,inhibit the phosphorylation of tau,K a1 = 8.43 × 10^3 ± 0.5 × 10^3 M^−1,119,K a2 = 1.45 × 10^5 ± 0.29 × 10^5 M^−1,6.9,decreases cytoplasmic superoxide levels,–
–,0.12,"COc1cccc2c1C(=O)c1c(O)c3c(c(O)c1C2=O)C[C@@](O)(C(=O)CO)C[C@@H]3O[C@H]1C[C@H](N)[C@H](O)[C@H](C)O1 [doxorubicin, reference compound]",–,–,–,–,–,–,–,–,–,–,–,–,–

# — publication PMC5573368, “Elucidation of Dietary Polyphenolics as Potential Inhibitor of Microtubule Affinity Regulating Kinase 4: In silico and In vitro Studies” (Scientific Reports, 2017)
